The assay concerns the target T1, Kinesin-like protein KIF18A (Homo sapiens, UniProt Q8NI77).
T1 sequence (Q8NI77 whole entry): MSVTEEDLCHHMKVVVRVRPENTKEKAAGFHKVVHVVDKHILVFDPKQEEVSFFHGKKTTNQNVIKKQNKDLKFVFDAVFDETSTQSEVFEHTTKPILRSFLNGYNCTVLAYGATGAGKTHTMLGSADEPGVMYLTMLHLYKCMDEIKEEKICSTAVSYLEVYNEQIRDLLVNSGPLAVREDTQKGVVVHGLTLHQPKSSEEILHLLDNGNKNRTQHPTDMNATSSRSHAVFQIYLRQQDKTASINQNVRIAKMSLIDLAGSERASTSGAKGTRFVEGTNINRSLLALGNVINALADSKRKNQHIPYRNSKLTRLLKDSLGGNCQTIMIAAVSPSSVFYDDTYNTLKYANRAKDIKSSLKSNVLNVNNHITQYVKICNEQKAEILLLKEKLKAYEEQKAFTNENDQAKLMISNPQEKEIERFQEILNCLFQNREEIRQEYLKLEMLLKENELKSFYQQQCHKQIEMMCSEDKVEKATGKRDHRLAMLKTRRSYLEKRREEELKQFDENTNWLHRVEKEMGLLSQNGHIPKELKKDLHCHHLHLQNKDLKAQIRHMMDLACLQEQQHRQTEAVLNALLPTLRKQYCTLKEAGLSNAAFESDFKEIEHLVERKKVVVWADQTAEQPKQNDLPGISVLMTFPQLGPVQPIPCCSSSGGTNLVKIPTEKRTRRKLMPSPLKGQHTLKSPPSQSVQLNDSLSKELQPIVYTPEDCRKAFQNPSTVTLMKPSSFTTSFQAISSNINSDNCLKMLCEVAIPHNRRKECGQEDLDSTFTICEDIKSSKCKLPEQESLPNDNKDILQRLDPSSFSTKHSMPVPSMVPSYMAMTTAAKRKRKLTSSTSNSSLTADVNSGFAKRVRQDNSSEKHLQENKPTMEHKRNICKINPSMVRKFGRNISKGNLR
The experiment in a line: Inhibition of KIF18A Microtubule-Dependent ATPase Activity. The procedure:
IC50 values were calculated from concentration vs. % Inhibition data via a four-parameter variable slope model.

The IC50 is the point on the concentration scale where inhibition reaches its midpoint. A high value points to weaker potency in that assay.

Molecule `O=S(=O)(CCO)Nc1cc(N2CCC3(CC2)CC3)c(-c2cn(-c3ccc(F)c(S(=O)(=O)N4CC(F)(F)C4)c3)nn2)cn1` [US20230382889, Compound 112] showed an IC50 of 77 nM.

Values taken from BindingDB's records for patent US20230382889 (Volastra Therapeutics, 2023).
